Where two headings read alike, the source gives them in different places. Marks after values point to notes of the source that are not given here.
Experiments:
[1] = human, in vivo
Procedure: (§1) Study Design: In the FIH Study: Part A is a Phase I monotherapy dose escalation, and Part B is a Phase 2 monotherapy expansion at 2 RP2D doses (200 mg QD, 500 mg QD).

[2] = rat, in vivo
[3] = test system: cultured human peripheral blood lymphocytes; assay: In vitro micronucleus assay; type: cell-based; details: 3+21 hours ± S9; 24+24 hours −S9
Procedure: Compound A was tested in a GLP-compliant in vitro micronucleus assay.

reticulocytes = assay: Rat micronucleus test; type: in vivo; details: 400, 800, 1600 mg/kg/day, two days
[4] = 7-day oral dose range finding toxicity study in rats; type: in vivo; details: rat, up to 300 mg/kg/day, 7 days
Source text: Noteworthy findings were changes in the female reproductive organs, including in the ovaries (minimal to moderate increased size of tertiary follicles, retained corpora lutea, and minimal to moderate interstitial cell hypertrophy), uterus (atrophy) and vagina (mucosa atrophy).

[5] = Caco-2 bidirectional permeability; type: in vitro ADME; details: human, Caco-2, 1.125 pM
Caco-2 cells = assay: Caco-2 bidirectional permeability; type: in vitro ADME; details: 11.25 μM
[6] = FIH Study Part B dose expansion (VERITAC): adverse events
Procedure: as §1
TEAEs and TRAEs from the clinical study database were coded to system organ class and preferred term using MedDRA version 22.0 and SAEs from the centralized safety database were coded using MedDRA version 25.0. The severity of adverse events was graded according to the NCI CTCAE version 5.0.

[7] = Clinical Pharmacology Study: adverse events in healthy volunteers
Source text: The severity of adverse events was graded according to the National Cancer Institute Common Terminology Criteria for Adverse Events (NCI CTCAE) version 5.0.

[8] = test system: ER+/HER2− locally advanced/metastatic breast cancer; assay: FIH Study Part B (VERITAC): clinical benefit rate, PFS; type: in vivo, human
Source text: The primary endpoint was clinical benefit rate (CBR; rate of confirmed complete or partial response or stable disease ≥24 weeks).

P-gp = P-gp (Homo sapiens, UniProt P08183); assay: Efflux transporter substrate assessment (inside-out vesicular assay), P-gp; type: in vitro ADME
Chain of P-gp (P08183 whole entry): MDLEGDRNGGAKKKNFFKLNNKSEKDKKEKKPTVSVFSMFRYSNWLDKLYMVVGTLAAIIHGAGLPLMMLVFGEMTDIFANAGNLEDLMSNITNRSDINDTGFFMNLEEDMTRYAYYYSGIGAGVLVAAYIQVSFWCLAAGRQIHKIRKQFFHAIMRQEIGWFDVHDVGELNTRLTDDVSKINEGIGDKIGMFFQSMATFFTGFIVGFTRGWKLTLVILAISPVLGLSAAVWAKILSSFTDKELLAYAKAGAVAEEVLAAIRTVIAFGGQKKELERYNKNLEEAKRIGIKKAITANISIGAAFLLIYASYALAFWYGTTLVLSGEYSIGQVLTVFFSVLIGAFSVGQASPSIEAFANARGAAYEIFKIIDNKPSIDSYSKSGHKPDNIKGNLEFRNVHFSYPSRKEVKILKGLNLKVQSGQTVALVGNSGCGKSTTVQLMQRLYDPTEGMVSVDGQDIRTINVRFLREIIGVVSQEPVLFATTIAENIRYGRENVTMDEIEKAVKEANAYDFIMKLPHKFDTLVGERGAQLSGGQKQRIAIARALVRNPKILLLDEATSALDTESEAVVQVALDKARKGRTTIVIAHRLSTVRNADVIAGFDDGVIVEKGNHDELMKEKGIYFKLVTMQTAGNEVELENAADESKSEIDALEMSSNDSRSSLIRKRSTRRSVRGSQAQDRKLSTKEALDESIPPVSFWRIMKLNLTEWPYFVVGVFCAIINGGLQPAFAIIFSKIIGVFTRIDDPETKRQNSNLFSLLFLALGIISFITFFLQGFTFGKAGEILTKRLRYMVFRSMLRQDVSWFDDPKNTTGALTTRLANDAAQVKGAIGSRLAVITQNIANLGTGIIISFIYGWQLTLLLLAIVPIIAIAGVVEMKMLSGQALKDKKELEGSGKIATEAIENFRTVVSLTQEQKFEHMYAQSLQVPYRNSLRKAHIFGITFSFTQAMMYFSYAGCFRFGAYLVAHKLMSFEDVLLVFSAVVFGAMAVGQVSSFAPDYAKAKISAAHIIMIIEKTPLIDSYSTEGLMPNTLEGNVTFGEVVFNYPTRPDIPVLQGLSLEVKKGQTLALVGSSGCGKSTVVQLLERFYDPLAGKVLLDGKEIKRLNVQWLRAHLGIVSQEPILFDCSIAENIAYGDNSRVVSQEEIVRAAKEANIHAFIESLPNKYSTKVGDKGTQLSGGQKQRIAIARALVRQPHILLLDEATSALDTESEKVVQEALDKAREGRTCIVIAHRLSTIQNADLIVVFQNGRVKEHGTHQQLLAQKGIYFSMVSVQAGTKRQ

AR = AR (Homo sapiens, UniProt P10275); assay: Secondary pharmacodynamics binding, AR; details: in vitro
Chain of AR (P10275 whole entry): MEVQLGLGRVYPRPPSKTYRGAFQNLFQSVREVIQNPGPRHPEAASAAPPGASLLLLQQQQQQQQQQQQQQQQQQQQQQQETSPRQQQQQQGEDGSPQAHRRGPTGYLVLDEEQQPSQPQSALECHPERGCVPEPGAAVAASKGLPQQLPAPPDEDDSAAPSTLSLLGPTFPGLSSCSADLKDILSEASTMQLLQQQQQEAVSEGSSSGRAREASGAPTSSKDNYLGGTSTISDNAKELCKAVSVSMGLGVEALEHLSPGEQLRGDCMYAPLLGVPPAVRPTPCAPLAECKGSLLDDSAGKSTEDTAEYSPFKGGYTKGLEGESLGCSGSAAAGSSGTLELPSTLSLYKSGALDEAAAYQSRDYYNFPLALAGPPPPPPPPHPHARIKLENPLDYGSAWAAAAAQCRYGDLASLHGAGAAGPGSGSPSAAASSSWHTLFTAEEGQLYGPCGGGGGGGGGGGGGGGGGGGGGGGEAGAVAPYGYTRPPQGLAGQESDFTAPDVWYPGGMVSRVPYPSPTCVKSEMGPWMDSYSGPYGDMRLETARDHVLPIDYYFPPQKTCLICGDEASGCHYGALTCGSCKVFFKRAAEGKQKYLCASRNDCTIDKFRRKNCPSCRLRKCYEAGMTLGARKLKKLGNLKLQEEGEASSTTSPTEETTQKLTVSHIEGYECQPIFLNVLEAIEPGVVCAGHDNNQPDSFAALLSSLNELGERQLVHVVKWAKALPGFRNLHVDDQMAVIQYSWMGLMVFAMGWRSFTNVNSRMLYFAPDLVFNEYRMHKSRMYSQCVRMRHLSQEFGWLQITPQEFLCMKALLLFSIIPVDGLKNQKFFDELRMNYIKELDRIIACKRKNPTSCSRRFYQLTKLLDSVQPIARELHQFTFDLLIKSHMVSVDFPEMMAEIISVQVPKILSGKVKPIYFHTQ

[9] = 200 mg QD n=35, Nov. 1, 2022, grade 1/2

SMILES: O=C1CC[C@H](N2Cc3cc(N4CCN(CC5CCN(c6ccc([C@@H]7c8ccc(O)cc8CC[C@@H]7c7ccccc7)cc6)CC5)CC4)ccc3C2=O)C(=O)N1 [Compound A, (S)-3-(5-(4-((1-(4-((1R,2S)-6-hydroxy-2-phenyl-1,2,3,4-tetrahydronaphthalen-1-yl)phenyl)piperidin-4-yl)methyl)piperazin-1-yl)-1-oxoisoindolin-2-yl)piperidine-2,6-dione]
- CL/F ([1]; 30 mg): 7.4 L/h
- Rac (AUCtau) ([1]; 30 mg): 2.6
- CL/F ([1]; 60 mg): 8.2 L/h
- Rac (AUCtau) ([1]; 60 mg): 2.6
- Tmax ([1]; 60 mg): 4.2 h
- CL/F ([1]; 100 mg): 11.2 L/h
- Rac (AUCtau) ([1]; 100 mg): 2.1
- CL/F ([1]; 120 mg): 8.8 L/h
- Cmax ([1]; 120 mg): 799 ng/mL
- Rac (AUCtau) ([1]; 120 mg): 2.2
- CL/F ([1]; 180 mg): 9.4 L/h
- Cmax ([1]; 180 mg): 1062 ng/mL
- Rac (AUCtau) ([1]; 180 mg): 2.3
- Tmax ([1]; 180 mg): 5.0 h
- AUCtau ([1]; 200 mg): 15459 ng·h/mL
- CL/F ([1]; 200 mg): 12.9 L/h
- Cmax ([1]; 200 mg): 866 ng/mL
- Rac (AUCtau) ([1]; 200 mg): 1.9
- Tmax ([1]; 200 mg): 5.0 h
- CL/F ([1]; 250 mg): 12.2 L/h
- CL/F ([1]; 360 mg): 13.9 L/h
- Rac (AUCtau) ([1]; 360 mg): 2.2
- CL/F ([1]; 500 mg): 14.5 L/h
- Cmax ([1]; 500 mg): 1883 ng/mL
- Rac (AUCtau) ([1]; 500 mg): 2.2
- AUCtau ([1]; 700 mg): 26572 ^e ng·h/mL
- Cmax ([1]; 700 mg): 1530 ^e ng/mL
- Rac (AUCtau) ([1]; 700 mg): 1, 4 ^g
- Tmax ([1]; 700 mg): 6.0 g·h
- developmental NOAEL [2]: could not be established
- frequency of micronuclei [3]: did not induce biologically relevant increases
- chromosomal damage in reticulocytes (reticulocytes): did not induce chromosomal damage
- tolerability [4]: well tolerated
- Papp A→B at 1.125 pM ([5]; read-out: permeability apical to basolateral): 1.33 ×10⁻⁶ cm/s
- Papp B→A at 1.125 pM ([5]; read-out: permeability basolateral to apical): 0.08 ×10⁻⁶ cm/s
- bidirectional permeability (Caco-2 cells): Similarly low bidirectional permeability
- TRAE Arthralgia [6, 9]: 11%
- TRAE Fatigue [6, 9]: 40%
- TRAE Nausea [6, 9]: 14%
- TRAE hot flush [6, 9]: 17%
- TRAE increased aspartate aminotransferase [6, 9]: 11%
- Grade 5 TRAEs ([6]; 6 Jun 2023): no Grade 5 TRAEs
- Grade 1 TEAEs ([6]; 6 Jun 2023, N=71): 22.5%
- Grade 1 TRAEs ([6]; 6 Jun 2023, N=71): 29.6%
- Grade 2 TEAEs ([6]; 6 Jun 2023, N=71): 33.8%
- Grade 2 TRAEs ([6]; 6 Jun 2023, N=71): 38.0%
- Grade 3 TEAEs ([6]; 6 Jun 2023, N=71): 28.2%
- Grade 3 TRAE electrocardiogram QT prolonged ([6]; 6 Jun 2023, N=71): 1.4%
- Grade 4 TEAEs ([6]; 6 Jun 2023, N=71): 2.8%
- Grade 5 TEAE ([6]; 6 Jun 2023, N=71): 1.4%
- TEAE Arthralgia ([6]; 6 Jun 2023, N=71): 21.1%
- TEAE Aspartate aminotransferase increased ([6]; 6 Jun 2023, N=71): 12.7%
- TEAE Back pain ([6]; 6 Jun 2023, N=71): 11.3%
- TEAE Constipation ([6]; 6 Jun 2023, N=71): 19.7%
- TEAE Decreased appetite ([6]; 6 Jun 2023, N=71): 15.5%
- TEAE Headache ([6]; 6 Jun 2023, N=71): 11.3%
- TEAE Nausea ([6]; 6 Jun 2023, N=71): 26.8%
- TEAE anemia ([6]; 6 Jun 2023, N=71): 14.1%
- TEAE hot flush ([6]; 6 Jun 2023, N=71): 14.1%
- TRAE Arthralgia ([6]; 6 Jun 2023, N=71): 14.1%
- TRAE Fatigue ([6]; 6 Jun 2023, N=71): 36.6%
- TRAE Nausea ([6]; 6 Jun 2023, N=71): 21.1%
- TRAE hot flush ([6]; 6 Jun 2023, N=71): 12.7%
- patients with TRAEs of Grade ≥3 ([6]; 6 Jun 2023, N=71): 7.0%
- patients with at least 1 TEAE ([6]; 6 Jun 2023, N=71): 88.7%
- patients with at least 1 TRAE ([6]; 6 Jun 2023, N=71): 76.1%
- SAEs ([6]; 6 Jun 2023, N=71, 10): 14.1%
- deaths ([6]; 14 of 71 participants): 19.7%
- SAE Seizure, Grade ([6]; Patient 1, onset day 263, Not related): 3
- SAE Intestinal obstruction, Grade ([6]; Patient 2, onset day 85, Not related): 3
- SAE Muscular weakness, Grade ([6]; Patient 3, onset day 165, Not related): 3
- SAE Back pain, Grade ([6]; Patient 3, onset day 196): 2
- SAE Hepatic hemorrhage, Grade ([6]; Patient 4, onset day 55, Not related): 4
- SAE Hypercalcemia, Grade ([6]; Patient 5, onset day 53, Not related): 4
- SAE Anemia, Grade ([6]; Patient 6, Not related): 3
- SAE Cholangitis, Grade ([6]; Patient 6, Not related): 3
- SAE Thrombocytopenia, Grade ([6]; Patient 6, Possibly related, SUSAR): 3
- SAE Hyperbilirubinemia, Grade ([6]; Patient 6, onset day 15, Possibly related, SUSAR): 4
- SAE Acute respiratory failure, Grade ([6]; Patient 6, onset day 19, Unlikely related): 5
- SAE Upper gastrointestinal hemorrhage, Grade ([6]; Patient 7, onset day 36, Not related): 3
- SAE Spinal cord compression, Grade ([6]; Patient 8, onset day 22, Not related): 3
- SAE Pyrexia, Grade ([6]; Patient 9, onset day 27, Not related): 3
- Grade 5 TRAEs ([6]; cut-off 6 Jun 2022): no Grade 5 TRAEs
- patients reporting SAEs ([6]; cut-off 6 Jun 2022): 9 of 71 patients
- total SAEs ([6]; cut-off 6 Jun 2022): 14 SAEs
- Grade 1 TEAEs ([6]; cut-off 6 Jun 2022, N=71): 29.6%
- Grade 1 TRAEs ([6]; cut-off 6 Jun 2022, N=71): 33.8%
- Grade 2 TEAEs ([6]; cut-off 6 Jun 2022, N=71): 35.2%
- Grade 2 TRAEs ([6]; cut-off 6 Jun 2022, N=71): 31.0%
- Grade 3 TEAE of anemia ([6]; cut-off 6 Jun 2022, N=71): 2 patients
- Grade 3 TEAEs ([6]; cut-off 6 Jun 2022, N=71): 18.3%
- Grade 4 TEAEs ([6]; cut-off 6 Jun 2022, N=71): 2.8%
- Grade 4 TRAE of hyperbilirubinemia ([6]; cut-off 6 Jun 2022, N=71): 1
- Grade 5 TEAE ([6]; cut-off 6 Jun 2022, N=71): 1.4%
- TEAEs of Grade ≥3 ([6]; cut-off 6 Jun 2022, N=71): 22.5%
- patients with TRAEs of Grade ≥3 ([6]; cut-off 6 Jun 2022, N=71): 7.0%
- patients with at least 1 TEAE ([6]; cut-off 6 Jun 2022, N=71): 87.3%
- patients with at least 1 TRAE ([6]; cut-off 6 Jun 2022, N=71): 71.8%
- TEAE leading to discontinuation ([6]; four of 71 patients): 5.6%
- TRAEs of Grade 2 or higher ([7]; 200 mg, healthy participants): no TRAEs of Grade 2 or higher were reported
- tolerability ([7]; 200 mg, healthy participants): well-tolerated
- Grade 1 TEAEs ([7]; Fast/Fed cohort): 21.4%
- Grade 2 TEAEs ([7]; Fast/Fed cohort): 14.3%
- Grade 3 or higher TEAEs ([7]; Fast/Fed cohort): No participants reported Grade 3 or higher TEAEs
- TEAE ligament sprain ([7]; Fast/Fed cohort n=14): 14.3%
- TRAE pollakiuria ([7]; Fast/Fed cohort n=14): 7.1%
- Grade 1 TEAEs ([7]; PPI cohort): 47.1%
- Grade 2 TEAEs ([7]; PPI cohort): 5.9%
- Grade 3 or higher TEAEs ([7]; PPI cohort): No participants reported Grade 3 or higher TEAEs
- TRAEs nausea, headache, pruritus, each ([7]; PPI cohort): 5.9%
- TEAE Headache ([7]; PPI cohort n=17): 29.4%
- participants with at least 1 TRAE ([7]; PPI cohort n=17): 11.8%
- participants with TEAE leading to discontinuation ([7]; PPI cohort, due to COVID): One
- SAEs, SARs, deaths ([7]; all cohorts): No SAEs, SARs or deaths were reported
- participants with at least 1 TRAE ([7]; all cohorts): 3 of 47 participants
- participants with TEAEs ([7]; all cohorts, 200 mg): 15 of 47 participants
- TRAEs ([7]; rBA cohort n=16): No participants reported a TRAE
- participants with a TEAE (dizziness, Grade 1) ([7]; rBA cohort n=16): 6.3%
- CBR ([8]; 200 mg QD, WT PIK3CA n=20, 95% CI 19-64): 40.0%
- CBR ([8]; 200 mg QD, all evaluable n=35, Nov. 1, 2022, 95% CI 21-55): 37.1%
- CBR ([8]; 200 mg QD, mutant ESR1 n=19, Nov. 1, 2022, 95% CI 24-71): 47.4%
- CBR ([8]; 200 mg QD, mutant PIK3CA n=15, 95% CI 12-62): 33.3%
- CBR ([8]; ITT (n=71)): 38%
- CBR ([8]; ITT ESR1m (n=41)): 51.2%
- PFS ([8]; ITT ESR1m (n=41)): 5.7 months
- CBR ([8]; no prior fulvestrant or chemotherapy in metastatic setting (n=8)): 62.5%
- CBR ([8]; patients with WT ESR1 (n=25)): 20%
- substrate of P-gp (P-gp): unlikely to be a substrate
- binding (AR): bound

Source: patent US20260069588A1, “VEPDEGESTRANT FOR USE IN TREATING CANCER” (Arvinas Operation, Inc., priority 2022, published 2026)
